From ChEMBL document CHEMBL1201862, “PubChem BioAssay data set” (2004)
The source made the active and inactive calls.

What was measured:
Genome polyprotein = Genome polyprotein (Hepatitis C virus, UniProt Q2Q167); assay: disruption of hepatitis C core self-association – biochemical, TR-FRET, dose response (AID 2159); parameters: species or system Hepacivirus hominis;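 also: blocks dimerization of HCV core protein measured by TR-FRET between tagged core106 pairs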
[1] = target: Peroxisome proliferator-activated receptor gamma/Nuclear receptor coactivator 1 (Homo sapiens, UniProt P37231); assay: (§1) TR-FRET dose response biochemical High Throughput Screening assay for agonists of the steroid receptor coactivator 1 (SRC-1) recruitment by the peroxisome proliferator-activated receptor gamma (PPAR gamma): non-selective agonists. [Related pubchem assays (depositor defined):AID1300, AID1808, AID504735, AID631]; assay type: protein assay
Sequence of Peroxisome proliferator-activated receptor gamma/Nuclear receptor coactivator 1 (P37231 whole entry): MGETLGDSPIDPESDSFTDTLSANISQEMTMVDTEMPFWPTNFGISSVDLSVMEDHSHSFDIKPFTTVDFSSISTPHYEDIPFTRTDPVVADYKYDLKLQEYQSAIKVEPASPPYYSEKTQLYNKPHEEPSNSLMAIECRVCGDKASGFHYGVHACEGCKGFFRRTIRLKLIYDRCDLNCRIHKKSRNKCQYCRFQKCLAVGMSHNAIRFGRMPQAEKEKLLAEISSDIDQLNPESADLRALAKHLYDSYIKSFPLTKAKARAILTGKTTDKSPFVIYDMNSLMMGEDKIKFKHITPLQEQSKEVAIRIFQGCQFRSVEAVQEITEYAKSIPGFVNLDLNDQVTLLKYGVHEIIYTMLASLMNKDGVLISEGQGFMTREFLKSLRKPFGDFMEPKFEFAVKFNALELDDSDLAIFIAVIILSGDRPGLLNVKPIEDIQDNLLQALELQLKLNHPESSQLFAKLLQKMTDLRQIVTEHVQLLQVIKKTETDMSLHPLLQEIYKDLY
Sequence of Peroxisome proliferator-activated receptor gamma/Nuclear receptor coactivator 1 (Q15788 whole entry, further chain): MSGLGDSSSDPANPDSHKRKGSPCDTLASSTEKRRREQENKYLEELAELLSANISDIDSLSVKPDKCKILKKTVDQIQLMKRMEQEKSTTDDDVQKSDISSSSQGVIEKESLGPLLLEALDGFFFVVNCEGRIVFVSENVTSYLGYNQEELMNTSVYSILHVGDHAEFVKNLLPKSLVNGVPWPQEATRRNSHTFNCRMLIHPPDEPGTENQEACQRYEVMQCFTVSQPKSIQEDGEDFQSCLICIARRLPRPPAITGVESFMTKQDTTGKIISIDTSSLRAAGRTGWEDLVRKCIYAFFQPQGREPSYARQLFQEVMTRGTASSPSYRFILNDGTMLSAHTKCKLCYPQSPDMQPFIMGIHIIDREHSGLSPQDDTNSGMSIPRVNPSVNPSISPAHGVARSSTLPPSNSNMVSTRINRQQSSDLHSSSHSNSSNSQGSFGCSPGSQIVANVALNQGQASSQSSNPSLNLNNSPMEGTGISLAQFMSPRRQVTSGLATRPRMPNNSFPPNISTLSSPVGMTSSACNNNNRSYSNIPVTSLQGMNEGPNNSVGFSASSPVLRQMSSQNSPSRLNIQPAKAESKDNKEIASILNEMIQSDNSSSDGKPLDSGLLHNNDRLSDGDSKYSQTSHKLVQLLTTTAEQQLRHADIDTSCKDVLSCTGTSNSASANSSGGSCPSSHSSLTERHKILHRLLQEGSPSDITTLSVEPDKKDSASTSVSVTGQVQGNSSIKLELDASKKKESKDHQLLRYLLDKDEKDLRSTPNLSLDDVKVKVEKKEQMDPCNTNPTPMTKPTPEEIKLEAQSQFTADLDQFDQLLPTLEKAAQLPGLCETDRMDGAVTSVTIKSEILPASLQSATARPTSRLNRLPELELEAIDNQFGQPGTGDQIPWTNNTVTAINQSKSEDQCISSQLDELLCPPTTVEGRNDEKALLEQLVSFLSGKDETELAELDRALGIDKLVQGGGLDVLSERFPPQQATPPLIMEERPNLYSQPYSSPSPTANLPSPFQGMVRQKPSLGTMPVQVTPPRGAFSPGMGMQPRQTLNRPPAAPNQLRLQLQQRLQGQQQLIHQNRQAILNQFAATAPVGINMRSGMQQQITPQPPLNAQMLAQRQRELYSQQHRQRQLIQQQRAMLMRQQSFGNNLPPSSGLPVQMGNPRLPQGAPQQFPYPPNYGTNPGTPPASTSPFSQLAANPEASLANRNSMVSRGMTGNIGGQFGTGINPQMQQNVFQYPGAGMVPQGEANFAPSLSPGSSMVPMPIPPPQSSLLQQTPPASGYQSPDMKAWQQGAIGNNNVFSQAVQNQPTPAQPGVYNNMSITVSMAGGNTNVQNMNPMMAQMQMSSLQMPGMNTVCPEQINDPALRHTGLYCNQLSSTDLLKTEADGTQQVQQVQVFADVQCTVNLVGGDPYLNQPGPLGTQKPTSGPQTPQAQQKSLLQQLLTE

[2] = target: Peroxisome proliferator-activated receptor gamma/Nuclear receptor coactivator 3 (Homo sapiens, UniProt P37231); assay: as §1, with “3 (SRC-3)” for “1 (SRC-1)”, “assays: 1301 (Confirmation screen.), 1048 (Primary screen.)]” for “assays (depositor defined):AID1300, AID1808, AID504735, AID631]”; assay type: functional
[3] = target: Peroxisome proliferator-activated receptor gamma/Nuclear receptor coactivator 2 (Homo sapiens, UniProt P37231); assay: TR-FRET dose response biochemical High Throughput Screening assay for agonists of the steroid receptor coactivator 2 (SRC-2) recruitment by the peroxisome proliferator-activated receptor gamma (PPAR gamma): non-selective agonists. [Related pubchem assays: 1297, 1032 ]; assay type: functional
Sequence of Peroxisome proliferator-activated receptor gamma/Nuclear receptor coactivator 2 (P37231 whole entry): as the sequence (P37231 whole entry) above
Sequence of Peroxisome proliferator-activated receptor gamma/Nuclear receptor coactivator 2 (Q15596 whole entry, further chain): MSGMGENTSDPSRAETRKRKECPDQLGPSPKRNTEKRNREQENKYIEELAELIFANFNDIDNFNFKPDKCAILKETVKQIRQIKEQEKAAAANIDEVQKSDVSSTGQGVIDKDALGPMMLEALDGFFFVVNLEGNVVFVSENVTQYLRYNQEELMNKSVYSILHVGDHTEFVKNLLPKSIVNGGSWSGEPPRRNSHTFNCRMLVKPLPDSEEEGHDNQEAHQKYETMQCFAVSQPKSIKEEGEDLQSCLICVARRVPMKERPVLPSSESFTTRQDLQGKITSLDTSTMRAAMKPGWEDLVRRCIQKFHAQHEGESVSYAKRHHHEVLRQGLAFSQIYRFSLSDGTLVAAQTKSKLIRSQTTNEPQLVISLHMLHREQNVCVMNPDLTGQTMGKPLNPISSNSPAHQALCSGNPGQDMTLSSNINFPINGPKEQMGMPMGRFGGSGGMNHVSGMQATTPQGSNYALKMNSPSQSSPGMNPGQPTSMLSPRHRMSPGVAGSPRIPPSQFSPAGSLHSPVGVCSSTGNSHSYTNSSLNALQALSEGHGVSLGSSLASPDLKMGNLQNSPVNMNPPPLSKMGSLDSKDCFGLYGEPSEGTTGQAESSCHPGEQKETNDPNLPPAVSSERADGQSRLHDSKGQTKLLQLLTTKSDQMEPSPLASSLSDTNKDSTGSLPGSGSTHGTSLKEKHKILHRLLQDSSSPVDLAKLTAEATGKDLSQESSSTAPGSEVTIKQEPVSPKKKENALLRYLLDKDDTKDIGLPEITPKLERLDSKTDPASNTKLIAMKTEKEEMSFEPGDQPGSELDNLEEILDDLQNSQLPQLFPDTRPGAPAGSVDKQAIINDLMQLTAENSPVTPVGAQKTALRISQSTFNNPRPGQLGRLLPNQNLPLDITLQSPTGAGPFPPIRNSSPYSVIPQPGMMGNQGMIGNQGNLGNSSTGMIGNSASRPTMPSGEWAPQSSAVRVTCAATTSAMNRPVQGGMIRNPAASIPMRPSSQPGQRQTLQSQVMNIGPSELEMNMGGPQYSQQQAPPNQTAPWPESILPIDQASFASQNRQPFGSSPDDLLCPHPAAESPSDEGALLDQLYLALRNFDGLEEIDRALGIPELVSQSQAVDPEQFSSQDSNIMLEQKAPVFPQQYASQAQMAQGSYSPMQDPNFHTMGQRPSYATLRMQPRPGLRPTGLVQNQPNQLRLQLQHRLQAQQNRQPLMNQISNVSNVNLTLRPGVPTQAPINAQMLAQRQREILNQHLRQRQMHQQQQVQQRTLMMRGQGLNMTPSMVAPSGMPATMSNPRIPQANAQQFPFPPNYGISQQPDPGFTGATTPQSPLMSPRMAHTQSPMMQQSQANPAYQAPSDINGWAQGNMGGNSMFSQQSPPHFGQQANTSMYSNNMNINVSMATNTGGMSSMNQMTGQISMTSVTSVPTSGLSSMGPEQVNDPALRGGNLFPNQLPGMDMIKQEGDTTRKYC

[4] = target: Dual specificity protein phosphatase 6 (Rattus norvegicus, UniProt Q64346); assay: inhibition of rat DUSP6 enzyme activity – biochemical, in vitro, primary screen (AID 425)
Sequence of Dual specificity protein phosphatase 6 (Q64346 whole entry, the tested form may be a part): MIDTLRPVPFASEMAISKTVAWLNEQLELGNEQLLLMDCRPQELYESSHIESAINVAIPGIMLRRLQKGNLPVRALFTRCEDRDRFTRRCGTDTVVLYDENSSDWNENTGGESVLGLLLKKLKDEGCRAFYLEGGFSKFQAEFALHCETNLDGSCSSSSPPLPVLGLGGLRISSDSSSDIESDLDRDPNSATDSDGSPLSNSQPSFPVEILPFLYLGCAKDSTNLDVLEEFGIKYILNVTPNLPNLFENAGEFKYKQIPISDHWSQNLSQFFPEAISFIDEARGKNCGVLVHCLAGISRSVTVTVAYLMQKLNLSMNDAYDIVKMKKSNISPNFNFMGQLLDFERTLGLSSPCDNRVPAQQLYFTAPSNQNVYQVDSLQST

[5] = target: T1, Carboxy-terminal domain RNA polymerase II polypeptide A small phosphatase 1 (Homo sapiens, UniProt Q9GZU7); assay: CTDSP1 inhibitors, concentration-response, biochemical, absorbance readout, ultra-high-throughput screen actives (AID 540297); assay type: functional
T1 sequence (Q9GZU7 whole entry): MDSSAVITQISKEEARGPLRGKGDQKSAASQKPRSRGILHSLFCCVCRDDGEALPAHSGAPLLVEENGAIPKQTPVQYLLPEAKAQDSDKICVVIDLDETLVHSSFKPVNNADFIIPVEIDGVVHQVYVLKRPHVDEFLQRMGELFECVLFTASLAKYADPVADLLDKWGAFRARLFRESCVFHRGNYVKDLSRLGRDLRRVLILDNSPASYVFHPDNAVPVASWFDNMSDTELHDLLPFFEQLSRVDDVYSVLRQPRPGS

[6] = target: Tyrosine-protein phosphatase non-receptor type 11 (Homo sapiens, UniProt Q06124); assay: PTPN11 enzyme inhibitors – biochemical, selectivity assay for STEP inhibitor project, dose response (AID 602367); assay type: functional; settings: read-out: IC50_Mean
[7] = target: 26S proteasome non-ATPase regulatory subunit 14 (Homo sapiens, UniProt O00487); assay: inhibition of proteasome subunit RPN11 – biochemical, fluorescence polarization, uHTS hits, confirmation (AID 602368); assay type: functional
Sequence of 26S proteasome non-ATPase regulatory subunit 14 (O00487 whole entry): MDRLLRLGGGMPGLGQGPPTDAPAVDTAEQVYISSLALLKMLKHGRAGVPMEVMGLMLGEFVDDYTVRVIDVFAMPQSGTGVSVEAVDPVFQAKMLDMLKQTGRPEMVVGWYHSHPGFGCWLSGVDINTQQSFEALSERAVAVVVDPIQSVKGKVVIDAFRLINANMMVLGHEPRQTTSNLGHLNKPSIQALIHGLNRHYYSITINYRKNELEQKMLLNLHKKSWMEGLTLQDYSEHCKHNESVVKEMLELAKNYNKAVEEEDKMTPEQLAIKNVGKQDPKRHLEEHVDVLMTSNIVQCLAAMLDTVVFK

[8] = target: Tyrosine-protein phosphatase non-receptor type 5 (Homo sapiens, UniProt P54829); assay: PTPN5 enzyme inhibition – biochemical, fluorescence intensity, uHTS hits, confirmation (AID 602372); assay type: functional; settings: read-out: IC50_Mean
[9] = target: 72 kDa type IV collagenase (Homo sapiens, UniProt P08253); assay: Dose Response validation of uHTS RPN11 inhibitor hits using a MMP-2 Fluorescence assay.; assay type: functional
[10] = target: Dual specificity protein phosphatase 3 (Homo sapiens, UniProt P51452); assay: VHR phosphatase inhibition, dose response, selectivity assay for STEP inhibitor project, biochemical (AID 602374); assay type: functional; settings: read-out: IC50_Mean
Sequence of Dual specificity protein phosphatase 3 (P51452 whole entry): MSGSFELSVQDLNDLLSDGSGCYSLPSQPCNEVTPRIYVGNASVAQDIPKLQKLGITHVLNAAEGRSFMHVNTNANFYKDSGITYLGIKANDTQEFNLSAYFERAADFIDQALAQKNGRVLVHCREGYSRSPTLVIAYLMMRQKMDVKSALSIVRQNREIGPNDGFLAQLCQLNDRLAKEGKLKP

Prothrombin = Prothrombin (Bos taurus, UniProt P00735); assay: thrombin protease inhibitors – biochemical, fluorescence polarization, uHTS hits, dose response (AID 602369); assay type: functional
[11] = target: T2, Tyrosine-protein phosphatase non-receptor type 22 (Homo sapiens, UniProt Q9Y2R2); assay: lymphoid phosphatase LYP inhibitors – biochemical, selectivity assay for STEP inhibitor project, dose response (AID 624241); assay type: functional
T2 sequence (Q9Y2R2 whole entry): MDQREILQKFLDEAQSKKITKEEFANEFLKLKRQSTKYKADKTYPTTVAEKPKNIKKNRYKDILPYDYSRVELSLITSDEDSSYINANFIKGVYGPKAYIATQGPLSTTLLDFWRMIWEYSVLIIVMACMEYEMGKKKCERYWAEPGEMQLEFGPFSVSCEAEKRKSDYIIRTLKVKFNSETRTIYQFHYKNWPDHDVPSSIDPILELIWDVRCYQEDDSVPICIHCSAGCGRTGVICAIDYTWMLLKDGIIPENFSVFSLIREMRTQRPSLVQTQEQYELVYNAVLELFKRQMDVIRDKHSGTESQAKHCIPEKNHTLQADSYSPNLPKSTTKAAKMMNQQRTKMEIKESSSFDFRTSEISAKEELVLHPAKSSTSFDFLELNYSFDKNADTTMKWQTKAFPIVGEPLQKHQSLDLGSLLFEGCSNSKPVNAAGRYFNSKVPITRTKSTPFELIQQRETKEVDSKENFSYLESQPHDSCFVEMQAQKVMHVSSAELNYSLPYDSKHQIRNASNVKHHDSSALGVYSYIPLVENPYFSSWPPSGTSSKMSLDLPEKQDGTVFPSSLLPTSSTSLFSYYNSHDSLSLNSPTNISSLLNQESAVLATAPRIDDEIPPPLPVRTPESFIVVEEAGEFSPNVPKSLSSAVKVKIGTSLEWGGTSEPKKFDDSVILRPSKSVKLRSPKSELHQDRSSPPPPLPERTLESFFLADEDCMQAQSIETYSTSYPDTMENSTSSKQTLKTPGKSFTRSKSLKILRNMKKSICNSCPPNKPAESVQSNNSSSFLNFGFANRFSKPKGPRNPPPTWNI

Sequence of Genome polyprotein (Q2Q167 whole entry): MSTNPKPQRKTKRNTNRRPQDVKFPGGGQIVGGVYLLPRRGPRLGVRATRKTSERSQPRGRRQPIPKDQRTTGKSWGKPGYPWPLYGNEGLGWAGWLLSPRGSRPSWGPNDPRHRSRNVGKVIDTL

IC50 (Genome polyprotein): > 49.8 µM (not active)
EC50 [1]: 32.2 µM (inactive)
EC50 [2]: > 79.4 µM (not active)
EC50 [3]: 21.7 µM (not active)
IC50 [4]: > 10 µM (not active)
IC50 [5]: 3.16 µM (active)
IC50 [6]: 1.71 µM (active)
IC50 [7]: 17.6 µM (active)
IC50 [8]: 4.17 µM (active)
IC50 [9]: 5.79 µM (active)
IC50 [10]: 1.21 µM (active)
IC50 (Prothrombin): > 100 µM (inactive)
IC50 [11]: 96.2 µM (inactive)
Compound: Cc1cccc(Nc2nn3c(=O)c4ccccc4nc3s2)c1
